Patent EP0452507A1, “MEDICINE COMPRISING TOCOPHERYL GLYCOSIDE AS ACTIVE INGREDIENT” (NIPPON HYPOX LABORATORIES INCORPORATED, priority 1989, dated 1991)
Like-named read-outs stand apart in the source and are kept apart here.

How the values were obtained:
IgE antibody = type: in vivo, rats; settings: for IgE antibody amount in serum, Average value: group average, maximum dilution of serum showing positive reaction
Description: At first, 20 male SD rats weighing 180 to 220 g were prepared. Egg-white albumin in an amount of 1 mg per rat was prepared as an antigen to induce the IgE antibody-antigen mediating immune response. Further, a mixture of 20 mg/rat of aluminum hydroxide with 0.6 mi/rat of pertussis vaccine was prepared as an immune aid (adjuvant).
Then, the above antigen and the above adjuvant were equally administered intracutaneously into the four footpads of each rat for sensitization.
24 Hours after the sensitization, the footpad swelling of each rat was measured by volumetry to determine the swelling ratio (unit: %). Then, the rats were separated into four groups each consisting of 5 rats such that the average swelling ratio of one group was nearly equal to that of another group.
Thereafter, one of the four groups was used as Control group, and a physiological saline solution of 10 % Nikkol (trade name, dissolving aid, supplied by Nikko Chemical Co., Ltd.) was administered intraperitoneally to each rat for the 11 consecutive days after the group separation, and on 15th day after the group separation, the serum of each rat was collected, and measured for an IgE antibody amount by means of a 48-hour homologous PCA reaction (passive cutaneous anaphylaxis reaction) as an index. In addition, the IgE antibody amount is shown in terms of a maximum dilution (unit: %) of serum showing positive reaction (blue spot having a diameter of not less than 5 mm).
Two groups of the remaining three groups were used as Example groups ⑥ and 0. A physiological saline solution of 10 % Nikkol containing VIE-MAN was administered intraperitoneally to each rat of Example group ⑥ in such a dose that the amount of VIE-MAN was 30 mg/kg/day for 11 days after the group separation. And, a physiological saline solution of 10 % Nikkol containing VIE-MAN was administered intraperitoneally to each rat of Example group 0 every other day (number of days for administration: 6 days) in such a dose that the amount of VIE-MAN was 100 mg/kg/day for 11 days after the group separation. Then, on 15th day after the group separation, the serum of each rat was collected, and measured for an IgE antibody amount in the same manner as that for Control group.
One remaining group of the four groups was used as Comparative Example group @. A physiological saline solution of 10 % Nikkol containing hydrocortisone which was an adrenocortical hormone preparation was administered intraperitoneally to each rat in such a dose that the amount of the hydrocortisone was 10 mg/kg/day for the consecutive 11 days after the group separation. Then, on 15th day after the group separation, the serum of each rat was collected, and measured for an IgE antibody amount in the same manner as that for Example groups 6 and ⑦.

adjuvant arthritis = adjuvant arthritis (Freund's complete adjuvant), right hind paw swelling by volumetry; type: in vivo, rats; settings: Example 6, Fig. 5; for inhibition activity against acute inflammation (before the 14th day) and adjuvant arthritis (after 17th day): VIE-MAN 10 and 30 mg/kg/day, depending upon the dose, indomethacin 10 mg/kg/day, intraperitoneally
Description: 24 male SD rats weighing 180 to 220 g were used, and measured for a size of the subplantar region of the right hind paw. As a substance to cause adjuvant arthritis, 0.05 ml/rat of Freund's complete adjuvant [ADJUVANT COMPLETEFREUND, trade name, supplied by Difco] was used.
Then, the above Freund's complete adjuvant was administered intracutaneously into the subplantar region of right hind paw of each rat, and 24 hours after the administration, the swelling on the right hind paw of each rat was measured by volumetry to determine a swelling ratio. The above rats were separated into four groups each consisting of 6 rats such that the average swelling ratio of one group was nearly equal to that of another group.
Thereafter, one out of the four groups was used as Control group. A physiological saline solution of 10 % Nikkol was administered intraperitoneally to each rat of this group for the consecutive 22 days after the group separation, and the swelling on the right hind paw was measured by volumetry every day after the administration of the physiological saline solution of 10 % Nikkol. The average of swelling ratios as a group for each day was determined on the basis of the values of the sizes of the subplantar regions of the right hind paws obtained by the measurement prior to the administration of the Freund's complete adjuvant.
The procedure for Control group was repeated except that a physiological saline solution of 10 % Nikkol containing VIE-MAN in place of the physiological saline solution of 10 % Nikkol was administered intraperitoneally in such a dose that the amount of VIE-MAN was 10 mg/kg/day.
The procedure for Control group was repeated except that a physiological saline solution of 10 % Nikkol containing VIE-MAN in place of the physiological saline solution of 10 % Nikkol was administered intraperitoneally in such a dose that the amount of VIE-MAN was 30 mg/kg/day.
The remaining one group was used as Comparative Example group ⓕ. The procedure for Example groups @ and @ was repeated except that a physiological saline solution of 10 % Nikkol containing indomethacin which was a nonsteroidal anti-inflammatory preparation (antipyretic analgesic antiphlogistic preparation) in place of the physiological saline solution of 10 % Nikkol was administered intraperitoneally in such a dose that the amount of the indomethacin was 10 mg/kg/day, and the average of swelling ratios as a group was determined.

| Compound | inhibition activity against the IgE antibody production (IgE antibody; same test as Example 3 with VIE-GLU in place of VIE-MAN) | average of the swelling ratios (adjuvant arthritis; 10 and 30 mg/kg/day intraperitoneally for 22 days, versus Control group) | inhibition activity against acute inflammation (before the 14th day) and adjuvant arthritis (after 17th day) (adjuvant arthritis) | average value of the IgE antibody amounts as a group unit (IgE antibody; 30 mg/kg/day (11 days) or 100 mg/kg/day (6 days) intraperitoneally, versus Control group) | inhibition activity against the IgE antibody production (IgE antibody; Example 3 / Comparative Example 2, VIE-MAN 30 or 100 mg/kg/day, hydrocortisone 10 mg/kg/day, intraperitoneally) | IgE antibody amount in serum, Average value (IgE antibody; 30 mg/kg/day (total 11 days) intraperitoneally) | IgE antibody amount in serum, Average value (IgE antibody; 100 mg/kg/day (total 6 days) intraperitoneally) | activity against acute inflammation and adjuvant arthritis compared with VIE-MAN (adjuvant arthritis; indomethacin 10 mg/kg/day intraperitoneally) |
| --- | --- | --- | --- | --- | --- | --- | --- | --- |
| Cc1c(C)c2c(c(C)c1OC1OC(CO)C(O)C(O)C1O)CCC(C)(CCCC(C)CCCC(C)CCCC(C)C)O2 (racemic) [VIE-GLU, dl-α-tocopheryl-,8-D-glucoside] | excellent inhibition activity | – | – | – | – | – | – | – |
| Cc1c(C)c2c(c(C)c1OC1OC(CO)C(O)C(O)C1O)CCC(C)(CCCC(C)CCCC(C)CCCC(C)C)O2 (racemic) [VIE-MAN, dl-a-tocopheryl-a-D-mannoside] | – | significantly lower than that of the swelling ratios of Control group | excellent inhibition activity | significantly lower than that of the IgE antibody amounts of Control group | excellent inhibition activity | 166.4 | 128.0 | – |
| COc1ccc2c(c1)c(CC(=O)O)c(C)n2C(=O)c1ccc(Cl)cc1 [indomethacin, reference compound] | – | – | showed inhibitory activity against both acute inflammation and adjuvant arthritis | – | – | – | – | much lower than that of VIE-MAN |
